# Patent publication EP4562003B1, “NOVEL 7-SUBSTITUTED INDOLE SULFONAMIDE DERIVATIVES” (F. Hoffmann-La Roche AG, priority 2022, dated 2024)
# Biological target: human GPR17 short isoform (Homo sapiens, UniProt Q13304)
# Test: GPR17 cAMP assay (TR-FRET cAMP quantification, antagonist mode)
# Type: cell-based
# Conditions: CHO-K1 cells stably expressing human GPR17 short isoform; EC80 of agonist MDL29,951; forskolin 15µM; IBMX 0.5mM; 30 minutes at room temperature; read-out: hGPR17 cAMP IC50
# Description: GPR17 cAMP Assay Protocol:
# CHO-K1 cells stably expressing vector containing untagged human GPR17 short isoform (Roche) were cultured at 37°C / 5% CO2 in DMEM (Dulbecco's Modified Eagle Medium):F-12 (1:1) supplemented with 10% foetal bovine serum and 400 µg/ml Geneticin.
# Changes in intracellular cyclic adenosine monophosphate (cAMP) levels were quantified using the Nano-TRF Detection Assay kit (Roche Diagnostics, Cat. No. 05214386001). This assay allows for direct cAMP quantification in a homogeneous solution. cAMP is detected based on time-resolved fluorescence energy transfer (TR-FRET) and competitive binding of ruthenylated cAMP and endogenous cAMP to an anti-cAMP monoclonal antibody labeled with AlexaFluor-700. The Ruthenium complex serves as the FRET donor and transfers energy to AlexaFluor-700. The FRET signal is inversely proportional to the cAMP concentration.
# CHO-GPR17S cells were detached with Accutase and resuspended in assay buffer consisting of Hank's Balanced Salt Solution (HBSS), 10mM HEPES (4-(2-hydroxyethyl) piperazine-1-ethanesulfonic acid solution) and 0.1% bovine serum albumin (pH 7.4). The cells were seeded in black 384-well plates (Corning) at a density of 10'000 cells / 20µl assay buffer until the addition of compounds.
# Test antagonist compounds were serially diluted in dimethyl sulfoxide (DMSO) and spotted in 384-well plates. The compounds were then diluted in HBSS buffer supplemented with an EC80 concentration of MDL29,951 (3-(2-Carboxy-4,6-dichloroindol-3-yl)propionic acid) (GPR17 agonist) plus 3-Isobutyl-1-methylxanthine (IBMX) (0.5mM final concentration) and added to the cells at room temperature. Forskolin (15µM final concentration) was added 5 minutes after the test compounds and the cells were incubated at room temperature for 30 minutes. The assay was stopped by adding cAMP detection mix (containing detergents for cell lysis) for 90 minutes at room temperature.
# Cellular cAMP was measured using a Paradigm reader (Molecular Devices). The raw data was used to calculate the FRET signal based on the assay's P-factor as per cAMP kit instructions. The data was normalized to the maximal activity of a reference antagonist and dose response curves were fitted to the percent activity of the test compounds using a sigmoidal dose response model (Genedata Screener).
# Results in the hGPR17 cAMP assay are provided for compounds of formula I in Table 1 Table 1: […]
# human GPR17 short isoform, sequence (Q13304 29-367): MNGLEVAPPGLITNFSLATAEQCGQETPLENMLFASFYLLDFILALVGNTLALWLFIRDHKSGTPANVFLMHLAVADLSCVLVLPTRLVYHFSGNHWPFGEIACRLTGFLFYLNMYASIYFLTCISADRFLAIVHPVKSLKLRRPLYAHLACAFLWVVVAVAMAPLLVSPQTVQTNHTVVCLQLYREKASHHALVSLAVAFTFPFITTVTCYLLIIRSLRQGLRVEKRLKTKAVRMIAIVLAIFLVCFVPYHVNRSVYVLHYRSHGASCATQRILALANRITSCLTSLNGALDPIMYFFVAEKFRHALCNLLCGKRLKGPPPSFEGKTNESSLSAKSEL
row,Compound,IC50
1,"COc1nc(NS(=O)(=O)c2c[nH]c3c(-c4ccccn4)c(Cl)ccc23)nc(OC)c1CC(F)F [Example 18, 6-chloro-N-[5-(2,2-difluoroethyl)-4,6-dimethoxy-pyrimidin-2-yl]-7-(2-pyridyl)-1H-indole-3-sulfonamide]",19 nM
2,"COc1nc(NS(=O)(=O)c2c[nH]c3c(-c4cnccn4)cccc23)nc(OC)c1CC(F)F [Example 25, N-[5-(2,2-difluoroethyl)-4,6-dimethoxy-pyrimidin-2-yl]-7-pyrazin-2-yl-1H-indole-3-sulfonamide]",56 nM
3,"COc1nc(NS(=O)(=O)c2c[nH]c3c(-c4ccnc(C)n4)c(Cl)ccc23)nc(OC)c1OCC(F)F [Example 62, 6-chloro-N-[5-(2,2-difluoroethoxy)-4,6-dimethoxy-pyrimidin-2-yl]-7-(2-methylpyrimidin-4-yl)-1H-indole-3-sulfonamide]",37 nM
4,"COc1nc(NS(=O)(=O)c2c[nH]c3c(-c4ncco4)c(Cl)ccc23)nc(OC)c1OCC(F)F [Example 2, 6-chloro-N-[5-(2,2-difluoroethoxy)-4,6-dimethoxy-pyrimidin-2-yl]-7-oxazol-2-yl-1H-indole-3-sulfonamide]",98 nM
5,"COc1nc(NS(=O)(=O)c2c[nH]c3c(-c4ncccn4)c(C(F)F)ccc23)nc(OC)c1OC(F)F [Example 50, N-[5-(difluoromethoxy)-4,6-dimethoxy-pyrimidin-2-yl]-6-(difluoromethyl)-7-(2-pyrimidyl)-1H-indole-3-sulfonamide]",288 nM
6,"COc1nc(NS(=O)(=O)c2c[nH]c3c(-c4nccn4C)cccc23)nc(OC)c1CC(F)F [Example 5, N-[5-(2,2-difluoroethyl)-4,6-dimethoxy-pyrimidin-2-yl]-7-(1-methylimidazol-2-yl)-1H-indole-3-sulfonamide]",26 nM
7,"COc1nc(NS(=O)(=O)c2c[nH]c3c(-c4ncccn4)c(Br)ccc23)nc(OC)c1OCCF [Example 37, 6-bromo-N-[5-(2-fluoroethoxy)-4,6-dimethoxy-pyrimidin-2-yl]-7-(2-pyrimidyl)-1H-indole-3-sulfonamide]",67 nM
8,"COc1nc(NS(=O)(=O)c2c[nH]c3c(-c4nccnc4C)c(Cl)ccc23)nc(OC)c1CC(F)F [Example 74, 6-chloro-N-[5-(2,2-difluoroethyl)-4,6-dimethoxy-pyrimidin-2-yl]-7-(3-methylpyrazin-2-yl)-1H-indole-3-sulfonamide]",19 nM
9,"COc1nc(NS(=O)(=O)c2c[nH]c3c(-c4ncccn4)c(Cl)ccc23)nc(OC)c1OC(F)F [Example 23, 6-chloro-N-[5-(difluoromethoxy)-4,6-dimethoxy-pyrimidin-2-yl]-7-(2-pyrimidyl)-1H-indole-3-sulfonamide]",50 nM
10,"COc1nc(NS(=O)(=O)c2c[nH]c3c(-c4ncccn4)c(Br)ccc23)nc(OC)c1CC(F)F [Example 35, 6-bromo-N-[5-(2,2-difluoroethyl)-4,6-dimethoxy-pyrimidin-2-yl]-7-(2-pyrimidyl)-1H-indole-3-sulfonamide]",34 nM
11,"COc1nc(NS(=O)(=O)c2c[nH]c3c(-c4ncc[nH]4)c(F)ccc23)nc(OC)c1OCC(F)F [Example 45, N-[5-(2,2-difluoroethoxy)-4,6-dimethoxy-pyrimidin-2-yl]-6-fluoro-7-(1H-imidazol-2-yl)-1H-indole-3-sulfonamide]",50 nM
12,"COc1nc(NS(=O)(=O)c2c[nH]c3c(-c4ncccn4)c(C(F)F)ccc23)nc(OC)c1OCCF [Example 44, 6-(difluoromethyl)-N-[5-(2-fluoroethoxy)-4,6-dimethoxy-pyrimidin-2-yl]-7-(2-pyrimidyl)-1H-indole-3-sulfonamide]",182 nM
13,"COc1nc(NS(=O)(=O)c2c[nH]c3c(-c4cnccn4)c(C)ccc23)nc(OC)c1OCC(F)F [Example 58, N-[5-(2,2-difluoroethoxy)-4,6-dimethoxy-pyrimidin-2-yl]-6-methyl-7-pyrazin-2-yl-1H-indole-3-sulfonamide]",51 nM
14,"COc1nc(NS(=O)(=O)c2c[nH]c3c(-c4ncccn4)c(Cl)c(F)cc23)nc(OC)c1OCC(F)F [Example 60, 6-chloro-N-[5-(2,2-difluoroethoxy)-4,6-dimethoxy-pyrimidin-2-yl]-5-fluoro-7-(2-pyrimidyl)-1H-indole-3-sulfonamide]",121 nM
15,"COc1nc(NS(=O)(=O)c2c[nH]c3c(-c4nccnc4Cl)c(Cl)ccc23)nc(OC)c1OCC(F)F [Example 66, 6-chloro-7-(3-chloropyrazin-2-yl)-N-[5-(2,2-difluoroethoxy)-4,6-dimethoxy-pyrimidin-2-yl]-1H-indole-3-sulfonamide]",55 nM
16,"COc1nc(NS(=O)(=O)c2c[nH]c3c(-c4ncccn4)c(F)ccc23)nc(OC)c1OCCF [Example 28, 6-fluoro-N-[5-(2-fluoroethoxy)-4,6-dimethoxy-pyrimidin-2-yl]-7-(2-pyrimidyl)-1H-indole-3-sulfonamide]",307 nM
17,"COc1nc(NS(=O)(=O)c2c[nH]c3c(-c4ccccc4)c(Cl)ccc23)nc(OC)c1CC(F)F [Example 71, 6-chloro-N-[5-(2,2-difluoroethyl)-4,6-dimethoxy-pyrimidin-2-yl]-7-phenyl-1H-indole-3-sulfonamide]",99 nM
18,"COc1nc(NS(=O)(=O)c2c[nH]c3c(-c4ccc(C)nn4)c(Cl)ccc23)nc(OC)c1OCC(F)F [Example 63, 6-chloro-N-[5-(2,2-difluoroethoxy)-4,6-dimethoxy-pyrimidin-2-yl]-7-(6-methylpyridazin-3-yl)-1H-indole-3-sulfonamidemide]",45 nM
19,"COc1nc(NS(=O)(=O)c2c[nH]c3c(-c4cnc(F)cn4)c(Cl)ccc23)nc(OC)c1OCC(F)F [Example 42, 6-chloro-N-[5-(2,2-difluoroethoxy)-4,6-dimethoxy-pyrimidin-2-yl]-7-(5-fluoropyrazin-2-yl)-1H-indole-3-sulfonamide]",38 nM

# Further lines, results first:
row,IC50,Compound
1,52 nM,"COc1nc(NS(=O)(=O)c2c[nH]c3c(-c4cnn(C)c4)c(Cl)ccc23)nc(OC)c1OCCF [Example 112, 6-chloro-N-[5-(2-fluoroethoxy)-4,6-dimethoxy-pyrimidin-2-yl]-7-(1-methylpyrazol-4-yl)-1H-indole-3-sulfonamide]"
2,59 nM,"COc1nc(NS(=O)(=O)c2c[nH]c3c(-c4cnco4)c(Cl)ccc23)nc(OC)c1OCC(F)F [Example 116, 6-chloro-N-[5-(2,2-difluoroethoxy)-4,6-dimethoxy-pyrimidin-2-yl]-7-oxazol-5-yl-1H-indole-3-sulfonamide]"
3,34 nM,"COc1nc(NS(=O)(=O)c2c[nH]c3c(-c4nccnc4F)c(Cl)ccc23)nc(OC)c1CC(F)F [Example 97, 6-chloro-N-[5-(2,2-difluoroethyl)-4,6-dimethoxy-pyrimidin-2-yl]-7-(3-fluoropyrazin-2-yl)-1H-indole-3-sulfonamide]"
4,38 nM,"COc1nc(NS(=O)(=O)c2c[nH]c3c(-c4nccnc4F)c(Cl)ccc23)nc(OC)c1OC(F)F [Example 99, 6-chloro-N-[5-(difluoromethoxy)-4,6-dimethoxy-pyrimidin-2-yl]-7-(3-fluoropyrazin-2-yl)-1H-indole-3-sulfonamide]"
5,113 nM,"COc1nc(NS(=O)(=O)c2c[nH]c3c(-c4ncn(C)n4)c(Cl)ccc23)nc(OC)c1OCC(F)F [Example 104, 6-chloro-N-[5-(2,2-difluoroethoxy)-4,6-dimethoxy-pyrimidin-2-yl]-7-(1-methyl-1,2,4-triazol-3-yl)-1H-indole-3-sulfonamide]"
6,31 nM,"COc1nc(NS(=O)(=O)c2c[nH]c3c(-c4nccnc4C)c(Cl)ccc23)nc(OC)c1OC(F)F [Example 81, 6-chloro-N-[5-(difluoromethoxy)-4,6-dimethoxy-pyrimidin-2-yl]-7-(3-methylpyrazin-2-yl)-1H-indole-3-sulfonamide]"
7,32 nM,"COc1nc(NS(=O)(=O)c2c[nH]c3c(-c4cnn(C)n4)c(Cl)ccc23)nc(OC)c1CC(F)F [Example 108, 6-chloro-N-[5-(2,2-difluoroethyl)-4,6-dimethoxy-pyrimidin-2-yl]-7-(2-methyltriazol-4-yl)-1H-indole-3-sulfonamide]"
8,28 nM,"COc1nc(NS(=O)(=O)c2c[nH]c3c(-c4cccc(C)n4)c(Cl)ccc23)nc(OC)c1OCC(F)F [Example 92, 6-chloro-N-[5-(2,2-difluoroethoxy)-4,6-dimethoxy-pyrimidin-2-yl]-7-(6-methyl-2-pyridyl)-1H-indole-3-sulfonamide]"
9,106 nM,"COc1nc(NS(=O)(=O)c2c[nH]c3c(-c4cnco4)c(Cl)ccc23)nc(OC)c1OC(F)F [Example 117, 6-chloro-N-[5-(difluoromethoxy)-4,6-dimethoxy-pyrimidin-2-yl]-7-oxazol-5-yl-1H-indole-3-sulfonamide]"
